Measurements reported in PMC9039622 (Frontiers in Pharmacology, 2022).

Legend:
[1] = In vitro incubation of prodrugs with LPL supplemented rat plasma; type: in vitro ADME, Sprague Dawley rat; details: over 3 h
Description: […] is tethered to the luminal surface of vascular endothelial cells under physiological conditions ([Bensadoun 1991]). In the current in vitro studies, rat plasma was therefore supplemented with LPL to better reflect the in vivo situation. To start hydrolysis, 10 µl of LPL solution (10,000 IU/ml) was added to a mixture of 10 µl of prodrug solution (0.1 mg/ml dissolved in acetonitrile) and 500 µl of blank Sprague Dawley rat plasma. The solution was incubated at 37°C. Samples (20 µl) of the incubation solution were taken at 0, 5, 15, 30, 60, 90, 120 and 180 min post incubation and added to 180 µl of ACN to stop lipolysis. The mixture was vortexed and centrifuged at 4,500 g for 5 min to precipitate proteins prior to analysis.
(§1) Absolute quantification of the hydrolysis products, i.e., MG derivatives and BUP-linker-COOH forms (“acid” forms) was not attempted due to lack of authentic standards. Instead, the profiles for these species were plotted based on the peak areas obtained from HPLC-MS. […] To illustrate changes to the BUP-linker-acid forms, the relative changes were plotted as the peak areas on the right-hand Y axis in Figures 3 and 5.

[2] = In vitro digestion of prodrugs by porcine pancreatin in simulated intestinal fluid (SIF); type: in vitro ADME; details: for MG intermediate detected in SIF: after 30 min incubation; for half-life at 1.96 µg/ml: pig, pH 6.5, SIF with porcine pancreatin, read-out: apparent half-life of MG intermediate in SIF
Description: Briefly, the lipase solution was prepared by dispersion of porcine pancreatin (10,000 IU/ml) in a lipolysis buffer (pH 6.5) containing tris-maleate (2 mM), CaCl2 (1.4 mM) and NaCl (150 mM), followed by centrifugation at 2,000 g for 15 min at 5°C to provide the lipase solution as the supernatant. To start the hydrolysis, 100 µl of the lipase solution was added to a mixture of 20 µl of prodrug solution (0.1 mg/ml dissolved in acetonitrile) and 900 µl of simulated intestinal micellar solution (3 mM of sodium taurodeoxycholate and 0.75 mM of phosphatidylcholine dispersed in lipolysis buffer). The solution was incubated at 37°C. Samples (20 µl) of the incubation solution were taken at 0, 5, 10, 15, 30, 60, 90, 120 and 180 min post incubation and added to 180 µl of acetonitrile to stop lipolysis. The mixture was vortexed and centrifuged at 4,500 g for 5 min to precipitate proteins prior to analysis. The supernatant was analysed by HPLC-MS/MS for the potential products (Figure 1) of prodrug hydrolysis as described in the Supplementary Material.
as §1

[3] = design: method as in earlier work; details: ref Tauber, Schroder, Dusterberg and Matthes 1986b; Shackleford et al., 2003; cited from earlier work

Structure (SMILES) | BUP-linker-acid form detected in plasma [1] | MG intermediate detected in SIF [2] | half-life at 1.96 µg/ml [2] [min] | further results
CO[C@]12CC[C@@]3(C[C@@H]1[C@](C)(O)C(C)(C)C)[C@H]1Cc4ccc(OC(=O)CCC(=O)OC(CO)CO)c5c4[C@@]3(CCN1CC1CC1)[C@H]2O5 [BUP-C4-MG] | no BUP-linker-acid forms were detected | only trace quantities | < 10 | 
CO[C@]12CC[C@@]3(C[C@@H]1[C@](C)(O)C(C)(C)C)[C@H]1Cc4ccc(OC(=O)CC(C)CC(=O)OC(CO)CO)c5c4[C@@]3(CCN1CC1CC1)[C@H]2O5 (stereo partly drawn) [BUP-C5bMe-MG] | no BUP-linker-acid forms were detected |  | > 60 | 
CO[C@]12CC[C@@]3(C[C@@H]1[C@](C)(O)C(C)(C)C)[C@H]1Cc4ccc(OC(=O)CCCCOC(=O)CCC(=O)OC(CO)CO)c5c4[C@@]3(CCN1CC1CC1)[C@H]2O5 [BUP-CE-C4-MG] | transiently detected | only trace quantities |  | 
CO[C@]12CC[C@@]3(C[C@@H]1[C@](C)(O)C(C)(C)C)[C@H]1Cc4ccc(OC(=O)CC(C)(C)c5c(C)cc(C)cc5OC(=O)CCC(=O)OC(CO)CO)c5c4[C@@]3(CCN1CC1CC1)[C@H]2O5 [BUP-TML-C4-MG] | no BUP-linker-acid forms were detected |  |  | MG intermediate remaining in simulated GI fluids ([2]; after 2 h): more than half
CO[C@]12CC[C@@]3(C[C@@H]1[C@](C)(O)C(C)(C)C)[C@H]1Cc4ccc(OC(=O)CC(C)(C)c5c(C)cc(C)cc5OC(=O)CC(C)CC(=O)OC(CO)CO)c5c4[C@@]3(CCN1CC1CC1)[C@H]2O5 (stereo partly drawn) [BUP-TML-C5bMe-MG] | no BUP-linker-acid forms were detected |  |  | MG intermediate remaining in SIF ([2]; at the end of the 3 h incubation, relative peak area): more than 80%
CCCCCCCCCCC(=O)O[C@H]1CC[C@H]2[C@@H]3CCC4=CC(=O)CC[C@]4(C)[C@H]3CC[C@]12C [testosterone undecanoate] |  |  |  | oral bioavailability for TST [3]: ~5%
